Results taken from patent publication US20260279694A1, “ELECTROLYTE SOLUTION FOR HYBRID ELECTROLYTIC CAPACITORS AND HYBRID ELECTROLYTIC CAPACITOR” (SANYO CHEMICAL INDUSTRIES, LTD., priority 2023, published 2026).

test: Measurement of acid dissociation constant (pKa) by titration in methanol; assay type: physicochemical; conditions: 25° C.; 1 part by weight acid in 99 parts methanol titrated with 0.1 mol/L methanolic potassium hydroxide; pH at half the titrant of first equivalence point
Experimental: At 25° C., 99 parts by weight of methanol was added to 1 part by weight of a carboxylic acid (A), and the contents were shaken and mixed until the carboxylic acid (A) was completely dissolved. A 0.1 mol/L methanolic potassium hydroxide solution was added dropwise to the resulting methanol solution of the carboxylic acid (A) to obtain a titration curve having inflection points, and among the inflection points, an inflection point at which the amount of titrant added was the smallest was defined as an equivalence point. The pH at half the amount of titrant added at the equivalence point on the obtained titration curve was read, and the pH was defined as the acid dissociation constant (pKa) of the carboxylic acid (A).
The pKa of the acid component (A′) was also measured in the same manner as the pKa of the carboxylic acid (A).

Compound | pKa | Acid dissociation constant (pKa)
O=C(O)CCCCCCCC(=O)O [Azelaic acid, azelaic acid, reference compound] | 6.7 | 
CCCCCCCCCCOC(=O)c1ccccc1C(=O)O [Example A10, phthalic acid n-decanol monoester] |  | 3.9
O=C(O)c1ccccc1C(=O)OCCO [Example A1, phthalic acid ethylene glycol monoester] |  | 3.8
OB(O)O [Boric acid, boric acid, reference compound] | 9.8 | 
O=C(O)c1c(C(=O)O)c(C(=O)O)c(C(=O)OCCO)c(C(=O)O)c1C(=O)O [Example A7, mellitic acid ethylene glycol monoester] |  | 1.7
O=C(O)c1ccccc1C(=O)O [Phthalic acid, phthalic acid, reference compound] | 3.9 | 
O=C(O)c1cc(C(=O)O)c(C(=O)O)cc1C(=O)O [Pyromellitic acid, pyromellitic acid, reference compound] | 2.8 | 
O=C(O)c1ccc(C(=O)O)o1 [2,5-Furandicarboxylic acid, 2,5-furandicarboxylic acid, reference compound] | 3.4 | 
O=C(O)c1ccc(C(=O)O)c(C(=O)O)c1 [Trimellitic acid, trimellitic acid, reference compound] | 3.5 | 
O=C(O)c1cc(C(=O)O)c(C(=O)OCCO)cc1C(=O)O [Example A5, pyromellitic acid ethylene glycol monoester] |  | 2.6
O=C(O)c1ccccc1C(=O)OCCCCCCCCCCO [Example A11, phthalic acid 1,10-decanediol monoester] |  | 4.0
trimellitic acid polyethylene glycol monoester [Example A4] |  | 3.6
pyromellitic acid polyethylene glycol monoester [Example A6] |  | 2.9
